We go through 21 compounds from patent US20140005163A1 (NOVARTIS AG, priority 2010, published 2014).

The subject of experiment [1] is S6 Ribosomal Protein phosphorylation Ser235/236 in TSC1 null mouse embryo fibroblast (MEF) cells. In words: Reverse protein array assay, S6 Ribosomal Protein phosphorylation Ser235/236 in TSC1 null MEF cells. Type of experiment: cell-based. The conditions noted are these: 1 h, pS6 ribosomal protein Ser235/236, 60 minutes incubation, read-out: p-S6 IC50. The essentials:
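TSC1−/− MEFs, seeded and held ≥20 h at 37 °C/5% CO2, were exposed to 8-step serial compound dilutions (0.02% DMSO final; DMSO vehicle control) for 60 min at 37 °C. Cells were then lysed on ice for 10 min and lysates spotted onto reverse protein array chips.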

Experiment [2] addresses T1, PI3K delta (Homo sapiens, UniProt O00329).
T1 construct: for the full-length p110-d subunit are generated and fused by overlapping PCR; p85(iSH2) fusion partner (see partner chain) (N); His tag (C); made in house; host or cells: baculovirus; Tn5 (Trichoplusia ni) or TiniPro insect cells
Description: PI3K delta kinase assay (Kinase-Glo luminescence). The experiment is classed as biochemical. In outline:
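Inhibition is derived from luminescent detection of unconsumed ATP. The reaction runs for one hour at ambient temperature and contains the δ isoform fusion protein, phosphatidylinositol substrate and low (1 μM) ATP. Eight compound concentrations are tested in single, and a 4-parameter logistic model is used to calculate IC50.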
In general terms: In Kinase-Glo more light means more ATP remaining.

In experiment [3] the target is T2, mTOR (Homo sapiens, UniProt P42345).
T2 construct: purchased Invitrogen Corporation (Carlsbad/CA, USA) PV4753
Description: Biochemical assay for m-TOR by TR-FRET. The conditions noted are these: 8 μM ATP, 400 nM GFP-4EBP1, 0.5 nM mTOR. The essentials: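 TR-FRET read-out: Tb-labelled anti-p4EBP1 pThr46 antibody (0.5 nM), added in EDTA to stop the reaction, detects phosphorylated GFP-4EBP1 after 15 min. Kinase step used 0.5 nM mTOR, 400 nM substrate, 8 μM ATP, MnCl2-containing HEPES buffer pH 7.5, room temperature.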

T1 sequence (O00329 with tags, fused parts or gaps limits assumed): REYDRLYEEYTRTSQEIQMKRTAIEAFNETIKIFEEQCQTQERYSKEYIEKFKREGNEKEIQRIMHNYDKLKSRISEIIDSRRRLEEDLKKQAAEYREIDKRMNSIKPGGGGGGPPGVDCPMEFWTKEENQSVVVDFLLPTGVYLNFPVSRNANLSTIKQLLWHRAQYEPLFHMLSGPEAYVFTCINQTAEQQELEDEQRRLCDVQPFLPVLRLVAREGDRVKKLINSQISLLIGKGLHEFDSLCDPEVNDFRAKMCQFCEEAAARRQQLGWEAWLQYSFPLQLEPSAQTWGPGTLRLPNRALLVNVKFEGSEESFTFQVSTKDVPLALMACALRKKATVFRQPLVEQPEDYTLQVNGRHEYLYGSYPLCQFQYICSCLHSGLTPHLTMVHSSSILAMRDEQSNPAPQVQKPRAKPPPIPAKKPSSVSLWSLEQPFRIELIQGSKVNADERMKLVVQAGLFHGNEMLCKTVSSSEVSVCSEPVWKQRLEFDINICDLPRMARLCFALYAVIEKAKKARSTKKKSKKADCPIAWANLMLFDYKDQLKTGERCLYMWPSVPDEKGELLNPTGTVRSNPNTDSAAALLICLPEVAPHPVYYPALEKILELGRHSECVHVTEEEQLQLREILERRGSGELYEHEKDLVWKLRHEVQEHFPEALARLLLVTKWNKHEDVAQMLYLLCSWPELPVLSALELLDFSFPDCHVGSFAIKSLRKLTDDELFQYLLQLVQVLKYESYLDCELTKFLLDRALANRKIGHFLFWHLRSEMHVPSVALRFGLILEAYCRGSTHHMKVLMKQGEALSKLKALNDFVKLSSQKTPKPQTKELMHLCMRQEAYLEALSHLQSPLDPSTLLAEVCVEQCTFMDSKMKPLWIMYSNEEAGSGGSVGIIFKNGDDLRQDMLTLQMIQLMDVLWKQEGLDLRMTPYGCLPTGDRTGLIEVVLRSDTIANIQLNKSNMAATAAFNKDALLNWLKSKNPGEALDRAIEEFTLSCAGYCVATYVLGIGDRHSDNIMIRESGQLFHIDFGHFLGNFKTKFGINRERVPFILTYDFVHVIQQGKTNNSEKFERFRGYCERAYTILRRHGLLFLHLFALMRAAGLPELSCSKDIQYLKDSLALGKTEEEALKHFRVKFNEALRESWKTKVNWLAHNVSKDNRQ
T2 sequence (P42345 1360-2549 limits assumed): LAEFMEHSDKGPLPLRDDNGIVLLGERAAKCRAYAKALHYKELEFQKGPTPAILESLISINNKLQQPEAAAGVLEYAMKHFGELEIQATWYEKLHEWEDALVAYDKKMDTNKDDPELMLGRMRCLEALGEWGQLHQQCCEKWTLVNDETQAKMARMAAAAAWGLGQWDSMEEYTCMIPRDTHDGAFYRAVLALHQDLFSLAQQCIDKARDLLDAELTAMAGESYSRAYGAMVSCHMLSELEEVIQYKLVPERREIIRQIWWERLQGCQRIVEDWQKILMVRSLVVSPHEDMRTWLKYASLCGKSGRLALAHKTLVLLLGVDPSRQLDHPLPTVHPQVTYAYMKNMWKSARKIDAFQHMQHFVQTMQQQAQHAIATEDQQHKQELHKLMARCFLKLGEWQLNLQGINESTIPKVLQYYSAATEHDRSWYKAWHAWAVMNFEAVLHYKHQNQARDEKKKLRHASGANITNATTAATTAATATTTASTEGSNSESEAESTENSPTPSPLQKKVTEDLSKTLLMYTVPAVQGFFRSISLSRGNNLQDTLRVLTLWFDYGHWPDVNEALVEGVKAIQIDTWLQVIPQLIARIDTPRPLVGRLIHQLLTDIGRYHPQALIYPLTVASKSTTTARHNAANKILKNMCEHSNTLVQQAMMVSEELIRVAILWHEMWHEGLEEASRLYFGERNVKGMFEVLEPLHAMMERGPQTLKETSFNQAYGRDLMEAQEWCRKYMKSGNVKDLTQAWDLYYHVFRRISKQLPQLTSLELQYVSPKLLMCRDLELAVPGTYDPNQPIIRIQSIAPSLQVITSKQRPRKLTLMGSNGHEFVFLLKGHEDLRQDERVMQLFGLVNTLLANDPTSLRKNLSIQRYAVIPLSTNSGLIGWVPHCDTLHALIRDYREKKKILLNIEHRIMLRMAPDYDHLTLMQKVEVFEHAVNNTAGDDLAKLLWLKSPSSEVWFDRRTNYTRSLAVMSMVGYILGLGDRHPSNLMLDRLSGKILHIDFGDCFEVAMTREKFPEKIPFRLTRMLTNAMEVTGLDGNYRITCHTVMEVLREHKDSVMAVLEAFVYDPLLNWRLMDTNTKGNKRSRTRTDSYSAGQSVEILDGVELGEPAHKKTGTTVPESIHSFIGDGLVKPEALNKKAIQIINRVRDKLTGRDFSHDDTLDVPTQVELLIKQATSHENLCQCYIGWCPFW

By IC50 is commonly meant the concentration that gives 50% inhibition. For the compound `CNC(=O)c1ccc(-c2ccc3ncc4c(c3c2)n(-c2cn(C)nc2Cl)c(=O)n4C)cc1` [Example 43.2, 4-[1-(3-Chloro-1-methyl-1H-pyrazol-4-yl)-3-methyl-2-oxo-2,3-dihydro-1H-imidazol[4,5-c]quinolin-8-yl]-N-methyl-benzamide], the concentration for half-maximal inhibition (IC50) in experiment [1] is less than 0.5 nM; in experiment [2] it was 34 nM; in experiment [3], 4 nM.

As to `Cc1noc(C)c1-n1c(=O)n(C)c2cnc3ccc(-c4cnc(N)c(C(F)(F)F)c4)cc3c21` [Example 25.5, 8-(6-Amino-5-trifluoromethyl-pyridin-3-yl)-1-(3,5-dimethyl-isoxazol-4-yl)-3-methyl-1,3-dihydro-imidazo[4,5-c]quinolin-2-one], the figures for the concentration for half-maximal inhibition (IC50) in experiment [1], in experiment [2] and in experiment [3] were 8 nM, 10 nM and 432 nM, respectively.

For the compound `COCc1cc(-c2ccc3ncc4c(c3c2)n(-c2cn(C)nc2Cl)c(=O)n4C)cnc1OC` [Example 201, 1-(3-Chloro-1-methyl-1H-pyrazol-4-yl)-8-(6-methoxy-5-methoxymethyl-pyridin-3-yl)-3-methyl-1,3-dihydro-imidazo[4,5-c]quinolin-2-one], the IC50 is 1 nM in experiment [1], less than 3 nM in experiment [2] and 27 nM in experiment [3].

For the compound `COc1ccc(-c2ccc3ncc4c(c3c2)n(-c2cnn(C)c2C)c(=O)n4C)cn1` [Example 2.9, 1-(1,5-Dimethyl-1H-pyrazol-4-yl)-8-(6-methoxy-pyridin-3-yl)-3-methyl-1,3-dihydro-imidazo[4,5-c]quinolin-2-one], the concentration for half-maximal inhibition (IC50) was determined as 27 nM in experiment [1], 54 nM in experiment [2] and 151 nM in experiment [3].

`Cc1c(-n2c(=O)n(C)c3cnc4ccc(-c5ccc(N(C)C)nc5)cc4c32)cnn1C` [Example 4.4, 8-(6-Dimethylamino-pyridin-3-yl)-1-(1,5-dimethyl-1H-pyrazol-4-yl)-3-methyl-1,3-dihydro-imidazo[4,5-c]quinolin-2-one]: the values for the IC50 in experiment [1], in experiment [2] and in experiment [3] were 10 nM, 89 nM and 100 nM, respectively.

As to `Cc1nn(C)cc1-n1c(=O)n(C)c2cnc3ccc(-c4cnc(F)c(N(C)C)c4)cc3c21` [Example 151, 8-(5-Dimethylamino-6-fluoro-pyridin-3-yl)-1-(1,3-dimethyl-1H-pyrazol-4-yl)-3-methyl-1,3-dihydro-imidazo[4,5-c]quinolin-2-one], the IC50 in experiment [1] came to 4 nM; in experiment [2], 5 nM; in experiment [3], 15 nM.

Regarding `Cc1nn(C)cc1-n1c(=O)n(C)c2cnc3ccc(-c4cnc(N)c(C(=O)NC(C)C)c4)cc3c21` [Example 225, 2-Amino-5-[1-(1,3-dimethyl-1H-pyrazol-4-yl)-3-methyl-2-oxo-2,3-dihydro-1H-imidazo[4,5-c]quinolin-8-yl]-N-isopropyl-nicotinamide], the IC50 in experiment [1] stood at 4 nM; in experiment [2] it was 26 nM; in experiment [3] it was 26 nM.

Regarding `CCOc1ccc(-c2ccc3ncc4c(c3c2)n(-c2cn(C)nc2Cl)c(=O)n4C)cn1` [Example 3.8, 1-(3-Chloro-1-methyl-1H-pyrazol-4-yl)-8-(6-ethoxy-pyridin-3-yl)-3-methyl-1,3-dihydro-imidazo[4,5-c]quinolin-2-one], the IC50 worked out at 11 nM in experiment [1], 34 nM in experiment [2] and 9 nM in experiment [3].

Take `CNc1ncc(-c2ccc3ncc4c(c3c2)n(-c2c(C)noc2C)c(=O)n4C)cc1Cl` [Example 146.6, 8-(5-Chloro-6-methylamino-pyridin-3-yl)-1-(3,5-dimethyl-isoxazol-4-yl)-3-methyl-1,3-dihydro-imidazo[4,5-c]quinolin-2-one]: the results for the IC50 in experiment [1], in experiment [2] and in experiment [3] were 278 nM, 10 nM and 479 nM, respectively.

In the case of `Cc1nn(C)cc1-n1c(=O)n(C)c2cnc3ccc(-c4cccc(OC(C)C)c4F)cc3c21` [Example 83, 1-(1,3-Dimethyl-1H-pyrazol-4-yl)-8-(2-fluoro-3-isopropoxy-phenyl)-3-methyl-1,3-dihydro-imidazo[4,5-c]quinolin-2-one], the IC50 in experiment [1] was 38 nM; in experiment [2], 234 nM; in experiment [3], 61 nM.

Take `CC(=O)Nc1cc(-c2ccc3ncc4c(c3c2)n(-c2cn(C)nc2C)c(=O)n4C)cnc1Cl` [Example 222, N-{2-Chloro-5-[1-(1,3-dimethyl-1H-pyrazol-4-yl)-3-methyl-2-oxo-2,3-dihydro-1H-imidazo[4,5-c]quinolin-8-yl]-pyridin-3-yl}-acetamide]: the results for the half-maximal inhibitory concentration (IC50) in experiment [1], in experiment [2] and in experiment [3] were 4 nM, 82 nM and 22 nM, respectively.

On to `CCOCc1cc(-c2ccc3ncc4c(c3c2)n(-c2cn(CC)nc2C)c(=O)n4C)cnc1N` [Example 166.2, 8-(6-Amino-5-ethoxymethyl-pyridin-3-yl)-1-(1-ethyl-3-methyl-1H-pyrazol-4-yl)-3-methyl-1,3-dihydro-imidazo[4,5-c]quinolin-2-one], for which the half-maximal inhibitory concentration (IC50) was 2.26 nM in experiment [1], 7 nM in experiment [2] and 55 nM in experiment [3].

With `[2H]C([2H])([2H])Nc1ncc(-c2ccc3ncc4c(c3c2)n(-c2c(C)nn(C)c2C)c(=O)n4C)cc1C(F)(F)F` [Example 143, 3-Methyl-8-(6-trideuteromethylamino-5-trifluoromethyl-pyridin-3-yl)-1-(1,3,5-trimethyl-1H-pyrazol-4-yl)-1,3-dihydro-imidazo[4,5-c]quinolin-2-one], the IC50 in experiment [1] was determined as 9 nM; in experiment [2], 10 nM; in experiment [3], 113 nM.

Consider `COCCNC(=O)c1cc(-c2ccc3ncc4c(c3c2)n(-c2cn(C)nc2C)c(=O)n4C)cnc1N` [Example 226, 2-Amino-5-[1-(1,3-dimethyl-1H-pyrazol-4-yl)-3-methyl-2-oxo-2,3-dihydro-1H-imidazo[4,5-c]quinolin-8-yl]-N-(2-methoxy-ethyl)-nicotinamide], for which the half-inhibitory concentration (IC50) in experiment [1] is 7 nM; in experiment [2], 21 nM; in experiment [3], 169 nM.

As for `Cc1nn(C)cc1-n1c(=O)n(C)c2cnc3ccc(-c4ccc(OCC5CC5)nc4)cc3c21` [Example 42, 8-(6-Cyclopropylmethoxy-pyridin-3-yl)-1-(1,3-dimethyl-1H-pyrazol-4-yl)-3-methyl-1,3-dihydro-imidazo[4,5-c]quinolin-2-one], the concentration for half-maximal inhibition (IC50) came to 3 nM in experiment [1], 441 nM in experiment [2] and 65 nM in experiment [3].

For `Cc1nn(C)cc1-n1c(=O)n(C)c2cnc3ccc(-c4cncc(S(C)(=O)=O)c4)cc3c21` [Example 22, 1-(1,3-Dimethyl-1H-pyrazol-4-yl)-8-(5-methanesulfonyl-pyridin-3-yl)-3-methyl-1,3-dihydro-imidazo[4,5-c]quinolin-2-one], the IC50 turned out to be 27 nM in experiment [1], 9 nM in experiment [2] and 121 nM in experiment [3].

Regarding `COCc1cc(-c2ccc3ncc4c(c3c2)n(-c2cn(C(C)C)nc2C)c(=O)n4C)cnc1N` [Example 168.1, 8-(6-Amino-5-methoxymethyl-pyridin-3-yl)-1-(1-isopropyl-3-methyl-1H-pyrazol-4-yl)-3-methyl-1,3-dihydro-imidazo[4,5-c]quinolin-2-one], the results for the IC50 in experiment [1], in experiment [2] and in experiment [3] were 1 nM, 5 nM and 12 nM, respectively.

For the compound `Cc1nn(C)cc1-n1c(=O)n(C)c2cnc3ccc(-c4ccc5c(c4)CCN5C)cc3c21` [Example 50, 1-(1,3-Dimethyl-1H-pyrazol-4-yl)-3-methyl-8-(1-methyl-2,3-dihydro-1H-indol-5-yl)-1,3-dihydro-imidazo[4,5-c]quinolin-2-one], the IC50 in experiment [1] is 91 nM; in experiment [2] it was 371 nM; in experiment [3], 157 nM.

`Cc1nn(C)cc1-n1c(=O)n(C)c2cnc3ccc(-c4cncc(OCCF)c4)cc3c21` [Example 181, 1-(1,3-Dimethyl-1H-pyrazol-4-yl)-8-[5-(2-fluoro-ethoxy)-pyridin-3-yl]-3-methyl-1,3-dihydro-imidazo[4,5-c]quinolin-2-one]: the 50% inhibitory concentration (IC50) worked out at 3 nM in experiment [1], 24 nM in experiment [2] and 10 nM in experiment [3].

For `Cc1nn(C)cc1-n1c(=O)n(C)c2cnc3ccc(-c4cnc(N)c(F)c4)cc3c21` [Example 142.2, 8-(6-Amino-5-fluoro-pyridin-3-yl)-1-(1,3-dimethyl-1H-pyrazol-4-yl)-3-methyl-1,3-dihydro-imidazo[4,5-c]quinolin-2-one], the half-inhibitory concentration (IC50) was less than 0.5 nM in experiment [1], 33 nM in experiment [2] and 6 nM in experiment [3].

With `Cc1nn(C(C)C)cc1-n1c(=O)n(C)c2cnc3ccc(-c4cnc(N(C)C)nc4)cc3c21` [Example 6.1, 8-(2-Dimethylamino-pyrimidin-5-yl)-1-(1-isopropyl-3-methyl-1H-pyrazol-4-yl)-3-methyl-1,3-dihydro-imidazo[4,5-c]quinolin-2-one], the IC50 in experiment [1] worked out at 33 nM; in experiment [2], 28 nM; in experiment [3], 30 nM.
